Each structure is given as a SMILES string.

The values that follow come from patent US20100125085A1, “PYRIDOINDOLE MODULATORS OF NMDA RECEPTOR AND ACETYLCHOLINESTERASE” (AUSPEX PHARMACEUTICALS, INC., priority 2008, published 2010).

The conditions of data set [1]: cited from earlier work.
A short description of data set [2]: sites of metabolism of dimebolin in humans. The format is in vivo. The conditions noted are these: discoveries made in our laboratory and literature.

`Cc1ccc2c(c1)c1c(n2CCc2ccc(C)nc2)CCN(C)C1` [dimebolin, 2,8-dimethyl-5-[2-(6-methyl-pyridin-3-yl)-ethyl]-2,3,4,5-tetrahydro-1H-pyrido[4,3-b]indole]: the common adverse events entry in data set [1] (>5% of patients and at least twice the incidence of placebo) was “dry mouth, depressed mood/depression, and hyperhidrosis”. Also, the “patients reporting at least 1 serious adverse effect” value in data set [1] (double-blind study, dimebolin group) is listed as 3%. For the same compound, in data set [1] (double-blind study, patients taking dimebolin), the “patients reporting at least 1 adverse effect” value is 79%. The sites of metabolism entry in data set [2] was “metabolized in humans at the pyridyl methyl group, the tolyl methyl group, the ethylene linker, and the N-methyl group”.
